Like-named read-outs stand apart in the source and are kept apart here.
Columns and labels:
[1] = biological target: T1, E-Selectin (Homo sapiens, UniProt P16581); experiment: Inhibition of HL60 cell adhesion to soluble, recombinant E-selectin (E-selectin-IgG1 fusion protein); format: cell-based
T1 sequence (P16581 22-556): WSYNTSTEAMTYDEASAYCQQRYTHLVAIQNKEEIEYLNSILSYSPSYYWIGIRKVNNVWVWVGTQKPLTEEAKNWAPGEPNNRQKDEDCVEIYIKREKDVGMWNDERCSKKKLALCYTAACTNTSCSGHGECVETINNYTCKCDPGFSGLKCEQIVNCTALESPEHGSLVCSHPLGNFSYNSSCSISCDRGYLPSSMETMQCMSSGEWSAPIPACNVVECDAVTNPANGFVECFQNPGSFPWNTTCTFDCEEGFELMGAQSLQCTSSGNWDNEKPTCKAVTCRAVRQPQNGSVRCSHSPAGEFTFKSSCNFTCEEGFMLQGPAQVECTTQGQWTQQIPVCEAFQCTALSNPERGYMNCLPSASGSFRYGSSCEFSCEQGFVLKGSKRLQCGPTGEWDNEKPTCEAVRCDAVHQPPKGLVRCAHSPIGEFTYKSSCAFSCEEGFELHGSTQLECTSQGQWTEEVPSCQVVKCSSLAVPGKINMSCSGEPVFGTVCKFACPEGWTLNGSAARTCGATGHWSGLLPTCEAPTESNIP
Description: (§1) Carrying out these assays to measure the inhibitory activity of the compounds according to the invention on cell adhesion of promyelocytic cells by means of selecting is described in detail in European Published Application EP 0 601 417.
(§2) In order to test the efficacy of the carbohydrate conjugates on the interaction between the E- and P-selectins (former nomenclature ELAM-1 or GMP-140) with their ligands, an assay is used which in each case is specific only for one of these interactions. The ligands are supplied in their natural form as surface structures on promyelocytic HL60 cells. Since HL60 cells contain ligands and adhesion molecules of very different specificity, the desired specificity of the assay can only be produced by means of the binding component. The binding components used were genetically prepared soluble fusion proteins from the in each case extracytoplasmatic domains of E- or P-selectin and the constant region of a human immunoglobulin of the IgG1 subclass.
Preparation of L-selectin-IgG1
For the preparation of soluble L-selectin-IgG1 fusion protein, the genetic construct "ELAM-Rg" published by Walz et al., 1990 was used.
For expression, the plasmid DNA was transfected in COS-7 cells (ATCC) by means of DEAE-dextran (Molecular Biology Methods: see Ausubel, F. M., Brent, R., Kingston, R. E., Moore, D. D., Seidman, J. G., Struhl, K. and Smith, J. A. 1990. Current Protocols in Molecular Biology, John Wiley, New York). Seven days after transfection, the culture supernatant is recovered, freed from cells and cell fragments by centrifugation and transferred to 25 mM HEPES pH 7.0, 0.3 mM PMSF, 0.02% sodium azide and stored at +4° C.
(§3) 1. 96-well microtiter test plates (Nunc Maxisorb) are incubated at room temperature for 2 hours with 100 μl of a goat anti-human IgG antibody (Sigma) diluted (1+100) in 50 mM Tris pH 9.5. After removing the antibody solution washing is carried out once with PBS.
(§4) 2. 150 μl of the blocking buffer are left in the wells at room temperature for 1 hour. The composition of the blocking buffer is: 0.1% gelatin, 1% BSA, 5% calf serum, 0.2 mM PMSF, 0.02% sodium azide. After removing the blocking buffer washing is carried out once with PBS.
(§5) 3. 100 μl each of cell culture supernatant of appropriately transfected and expressing COS cells are pipetted into the wells. Incubation is carried out at room temperature for 2 hours. After removing the cell culture supernatant washing is carried out once with PBS.
(§6) 4. 20 μl of binding buffer are added to the wells. The binding buffer has the composition: 50 mM HEPES, pH 7.5; 100 mM NaCl; 1 mg/ml BSA; 2 mM MgCl2; 1 mM CaCl2; 3 mM MnCl2; 0.02% sodium azide; 0.2 mM PMSF. 5 μl of the test substance are pipetted into this, mixed by swirling the plate and incubated at room temperature for 10 minutes.
(§7) 5. 50 ml of an HL60 cell culture containing 200,000 cells/ml are centrifuged at 350 g for 4 minutes. The pellet is resuspended in 10 ml of RPMI 1640 and the cells are centrifuged again. For labeling the cells, 50 μg of BCECF-AM (Molecular Probes) are dissolved in 5 μl of anhydrous DMSO; 1.5 ml of RPMI 1640 are then added to the BCECF-AM/DMSO solution. The cells are resuspended using this solution and incubated at 37° C. for 30 minutes. After centrifugation at 350 g for 2 minutes, the labeled cell pellet is resuspended in 11 ml of binding buffer and the resuspended cells are distributed into the microtiter plate wells in 100 μl aliquots. The plate is allowed to stand at room temperature for 10 minutes in order to allow the cells to sediment on the bottom of the test plate. In the course of this, the cells have the opportunity to adhere to the coated plastic.
(§8) 6. To stop the test, the microtiter plate is immersed completely in the stop buffer (25 mM tris, pH 7.5; 125 mM NaCl; 0.1% BSA; 2 mM MgCl2; 1 mM CaCl2; 3 mM MnCl2; 0.02% sodium azide) at an angle of 45°. The stop buffer is removed from the wells by inversion and the procedure is repeated a further two times.

[2] = biological target: T2, P-Selectin (Homo sapiens, UniProt P16109); experiment: Inhibition of HL60 cell adhesion to soluble, recombinant P-selectin (P-selectin-IgG1 fusion protein); format: cell-based
T2 sequence (P16109 42-771): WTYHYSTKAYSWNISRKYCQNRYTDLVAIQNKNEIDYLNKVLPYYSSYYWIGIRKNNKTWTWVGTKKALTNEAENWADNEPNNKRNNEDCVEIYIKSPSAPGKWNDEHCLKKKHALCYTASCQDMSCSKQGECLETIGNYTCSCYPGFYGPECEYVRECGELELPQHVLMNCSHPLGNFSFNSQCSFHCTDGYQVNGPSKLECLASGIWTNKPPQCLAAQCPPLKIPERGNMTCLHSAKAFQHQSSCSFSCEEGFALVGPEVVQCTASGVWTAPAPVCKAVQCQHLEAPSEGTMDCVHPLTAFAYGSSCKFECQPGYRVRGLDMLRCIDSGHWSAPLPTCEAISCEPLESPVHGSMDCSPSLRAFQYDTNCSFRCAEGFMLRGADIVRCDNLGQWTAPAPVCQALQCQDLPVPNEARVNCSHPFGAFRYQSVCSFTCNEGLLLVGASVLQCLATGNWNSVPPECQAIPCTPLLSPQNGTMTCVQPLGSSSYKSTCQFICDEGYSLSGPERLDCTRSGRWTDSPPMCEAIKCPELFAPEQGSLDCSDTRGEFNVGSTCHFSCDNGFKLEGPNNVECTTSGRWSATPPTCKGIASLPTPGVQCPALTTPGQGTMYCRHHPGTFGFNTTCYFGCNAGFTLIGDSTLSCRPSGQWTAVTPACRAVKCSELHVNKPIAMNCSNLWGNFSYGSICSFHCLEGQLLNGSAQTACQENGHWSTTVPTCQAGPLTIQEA
Description: as §1, §2
Preparation of P-selectin-IgG1
For preparation of the soluble P-selectin-IgG1 fusion protein, the genetic construct "ICD62Rg" published by Aruffo et al., 1991 is used. The further procedure corresponds to the preparation of L-selectin-IgG1 presented under A1.
as §3, §4, §5, §6, §7, §8
7. Measurement of the BCECF-AM-labeled cells firmly adhering to the wells is carried out in a cytofluorimeter (Millipore) at a sensitivity setting of 4, an excitation wavelength of 485/220 nm and an emission wavelength of 530/250 nm.

[3] = inhibition of HL60 cell adhesion to soluble, recombinant adhesion molecules; read-out: IC50 E-Selectin
[4] = inhibition of HL60 cell adhesion to soluble, recombinant adhesion molecules; read-out: IC50 P-Selectin

IC50 [1, 3]	IC50 [2, 4]	Compound	also measured
	330 µM	CC(=O)N[C@H]1[C@H](OCCCCCCNC(=O)C2CCC(CN3C(=O)C=CC3=O)CC2)O[C@H](CO)[C@@H](O[C@@H]2O[C@H](CO)[C@H](O)[C@H](O[C@]3(C(=O)O)C[C@H](O)[C@@H](NC(C)=O)[C@H]([C@H](O)[C@H](O)CO)O3)[C@H]2O)[C@@H]1O[C@@H]1O[C@@H](C)[C@@H](O)[C@@H](O)[C@@H]1O (some centres unmarked) [Compound I-9]	
1200 µM		CC(=O)N[C@H]1[C@H](OCCCCCCNC(=O)[C@@H](N)CCC(=O)O)O[C@H](CO)[C@@H](O[C@@H]2O[C@H](CO)[C@H](O)[C@H](O[C@]3(C(=O)O)C[C@H](O)[C@@H](NC(C)=O)[C@H]([C@H](O)[C@H](O)CO)O3)[C@H]2O)[C@@H]1O[C@@H]1O[C@@H](C)[C@@H](O)[C@@H](O)[C@@H]1O [Compound I-6]	
	2000 µM	CC(=O)N[C@H]1[C@H](OCCCCCCN)O[C@H](CO)[C@@H](O[C@@H]2O[C@H](CO)[C@H](O)[C@H](O[C@]3(C(=O)O)C[C@H](O)[C@@H](NC(C)=O)[C@H]([C@H](O)[C@H](O)CO)O3)[C@H]2O)[C@@H]1O[C@@H]1O[C@@H](C)[C@@H](O)[C@@H](O)[C@@H]1O [III (n = 6), reference compound]	
	1500 µM	CC(=O)N[C@H]1[C@H](OCCCCCCNC(=O)CCC(=O)O)O[C@H](CO)[C@@H](O[C@@H]2O[C@H](CO)[C@H](O)[C@H](O[C@]3(C(=O)O)C[C@H](O)[C@@H](NC(C)=O)[C@H]([C@H](O)[C@H](O)CO)O3)[C@H]2O)[C@@H]1O[C@@H]1O[C@@H](C)[C@@H](O)[C@@H](O)[C@@H]1O [Compound I-7]	

Second part, the molecule before the results:

Compound	IC50 [1, 3]	IC50 [2, 4]	also measured
CSCC[C@H](NC=O)C(=O)N[C@@H](CC(C)C)C(=O)N[C@@H](Cc1ccccc1)C(=O)NCCCCCCO[C@@H]1O[C@H](CO)[C@@H](O[C@@H]2O[C@H](CO)[C@H](O)[C@H](O[C@]3(C(=O)O)C[C@H](O)[C@@H](NC(C)=O)[C@H]([C@H](O)[C@H](O)CO)O3)[C@H]2O)[C@H](O[C@@H]2O[C@@H](C)[C@@H](O)[C@@H](O)[C@@H]2O)[C@H]1NC(C)=O [Compound I-12]	> 800 µM	> 800 µM	
CC(=O)N[C@H]1[C@H](OCCCCCCNC(=O)CCC(CCC(=O)NCCCCCCO[C@@H]2O[C@H](CO)[C@@H](O[C@@H]3O[C@H](CO)[C@H](O)[C@H](O[C@]4(C(=O)O)C[C@H](O)[C@@H](NC(C)=O)[C@H]([C@H](O)[C@H](O)CO)O4)[C@H]3O)[C@H](O[C@@H]3O[C@@H](C)[C@@H](O)[C@@H](O)[C@@H]3O)[C@H]2NC(C)=O)(CCC(=O)NCCCCCCO[C@@H]2O[C@H](CO)[C@@H](O[C@@H]3O[C@H](CO)[C@H](O)[C@H](O[C@]4(C(=O)O)C[C@H](O)[C@@H](NC(C)=O)[C@H]([C@H](O)[C@H](O)CO)O4)[C@H]3O)[C@H](O[C@@H]3O[C@@H](C)[C@@H](O)[C@@H](O)[C@@H]3O)[C@H]2NC(C)=O)[N+](=O)[O-])O[C@H](CO)[C@@H](O[C@@H]2O[C@H](CO)[C@H](O)[C@H](O[C@]3(C(=O)O)C[C@H](O)[C@@H](NC(C)=O)[C@H]([C@H](O)[C@H](O)CO)O3)[C@H]2O)[C@@H]1O[C@@H]1O[C@@H](C)[C@@H](O)[C@@H](O)[C@@H]1O [II-2]			IC50 ([1]; read-out: IC50 E-Selectin; inhibition of HL60 cell adhesion to soluble, recombinant adhesion molecules): 130 µM; IC50 ([2]; read-out: IC50 P-Selectin; inhibition of HL60 cell adhesion to soluble, recombinant adhesion molecules): 140 µM
CCCCCCCCCCCCCCCC(=O)N[C@@H](CSCC(COC(=O)CCCCCCCCCCCCCCC)OC(=O)CCCCCCCCCCCCCCC)C(=O)NCCCCCCO[C@@H]1O[C@H](CO)[C@@H](O[C@@H]2O[C@H](CO)[C@H](O)[C@H](O[C@]3(C(=O)O)C[C@H](O)[C@@H](NC(C)=O)[C@H]([C@H](O)[C@H](O)CO)O3)[C@H]2O)[C@H](O[C@@H]2O[C@@H](C)[C@@H](O)[C@@H](O)[C@@H]2O)[C@H]1NC(C)=O (some centres unmarked) [Compound I-13]	20 µM	100 µM	
CC(=O)N[C@H]1[C@H](OCCCCCCNC(=O)CCCC[C@@H]2SC[C@@H]3NC(=O)N[C@@H]32)O[C@H](CO)[C@@H](O[C@@H]2O[C@H](CO)[C@H](O)[C@H](O[C@]3(C(=O)O)C[C@H](O)[C@@H](NC(C)=O)[C@H]([C@H](O)[C@H](O)CO)O3)[C@H]2O)[C@@H]1O[C@@H]1O[C@@H](C)[C@@H](O)[C@@H](O)[C@@H]1O [Compound I-11]		600 µM	
